Data published in the NIST ThermoML archive (doi:10.1021/je7003929).
± gives the expanded uncertainty stated by the source.

Assay: xn = mol fraction of the nth substance listed
Details: Liquid, Vibrating tube method

c1ccc2sccc2c1 [benzo[b]thiophene] + CCCCCC
Details | mass density [kg/m3]
312.99 K, 1009 kPa, x2 = 0.2588 | 1009 ± 0.5
312.99 K, 2023 kPa, x2 = 0.2588 | 1009.7 ± 0.5
312.99 K, 3016 kPa, x2 = 0.2588 | 1010.5 ± 0.5
312.99 K, 4029 kPa, x2 = 0.2588 | 1011.2 ± 0.5
312.99 K, 5004 kPa, x2 = 0.2588 | 1011.9 ± 0.5
312.99 K, 6021 kPa, x2 = 0.2588 | 1012.6 ± 0.5
312.99 K, 7031 kPa, x2 = 0.2588 | 1013.3 ± 0.5
312.99 K, 8005 kPa, x2 = 0.2588 | 1014 ± 0.5
312.99 K, 9022 kPa, x2 = 0.2588 | 1014.8 ± 0.5
312.99 K, 10016 kPa, x2 = 0.2588 | 1015.4 ± 0.5
312.99 K, 11004 kPa, x2 = 0.2588 | 1016.1 ± 0.5
312.99 K, 12015 kPa, x2 = 0.2588 | 1016.8 ± 0.5
312.99 K, 13015 kPa, x2 = 0.2588 | 1017.5 ± 0.5
312.99 K, 14003 kPa, x2 = 0.2588 | 1018.2 ± 0.5
312.99 K, 15011 kPa, x2 = 0.2588 | 1018.9 ± 0.5
312.99 K, 16003 kPa, x2 = 0.2588 | 1019.5 ± 0.5
312.99 K, 17010 kPa, x2 = 0.2588 | 1020.2 ± 0.5
312.99 K, 18002 kPa, x2 = 0.2588 | 1020.9 ± 0.5
312.99 K, 19029 kPa, x2 = 0.2588 | 1021.5 ± 0.5
312.99 K, 20017 kPa, x2 = 0.2588 | 1022.2 ± 0.5
313 K, 1011 kPa, x2 = 0.0629 | 1112.7 ± 0.5
313 K, 2027 kPa, x2 = 0.0629 | 1113.3 ± 0.5
313 K, 3046 kPa, x2 = 0.0629 | 1113.9 ± 0.5
313 K, 4018 kPa, x2 = 0.0629 | 1114.5 ± 0.5
313 K, 5014 kPa, x2 = 0.0629 | 1115.2 ± 0.5
313 K, 6016 kPa, x2 = 0.0629 | 1115.7 ± 0.5
313 K, 7014 kPa, x2 = 0.0629 | 1116.3 ± 0.5
313 K, 8008 kPa, x2 = 0.0629 | 1116.9 ± 0.5
313 K, 9013 kPa, x2 = 0.0629 | 1117.6 ± 0.5
313 K, 10003 kPa, x2 = 0.0629 | 1118.1 ± 0.5
313 K, 11005 kPa, x2 = 0.0629 | 1118.7 ± 0.5
313 K, 12017 kPa, x2 = 0.0629 | 1119.3 ± 0.5
313 K, 13017 kPa, x2 = 0.0629 | 1119.9 ± 0.5
313 K, 14023 kPa, x2 = 0.0629 | 1120.5 ± 0.5
313 K, 15024 kPa, x2 = 0.0629 | 1121 ± 0.5
313 K, 16016 kPa, x2 = 0.0629 | 1121.6 ± 0.5
313 K, 17014 kPa, x2 = 0.0629 | 1122.3 ± 0.6
313 K, 18019 kPa, x2 = 0.0629 | 1122.8 ± 0.6
313 K, 19014 kPa, x2 = 0.0629 | 1123.4 ± 0.6
313 K, 20000 kPa, x2 = 0.0629 | 1124 ± 0.6
313.11 K, 1023 kPa, x2 = 0.9432 | 669 ± 0.5
313.11 K, 2023 kPa, x2 = 0.9432 | 670 ± 0.5
313.11 K, 3037 kPa, x2 = 0.9432 | 671 ± 0.5
313.11 K, 4019 kPa, x2 = 0.9432 | 672.2 ± 0.5
313.11 K, 5025 kPa, x2 = 0.9432 | 673.3 ± 0.5
313.11 K, 6058 kPa, x2 = 0.9432 | 674.4 ± 0.5
313.11 K, 7008 kPa, x2 = 0.9432 | 675.5 ± 0.5
313.11 K, 8047 kPa, x2 = 0.9432 | 676.6 ± 0.5
313.11 K, 9025 kPa, x2 = 0.9432 | 677.6 ± 0.5
313.11 K, 10040 kPa, x2 = 0.9432 | 678.6 ± 0.5
313.11 K, 11000 kPa, x2 = 0.9432 | 679.6 ± 0.5
313.11 K, 12016 kPa, x2 = 0.9432 | 680.7 ± 0.5
313.11 K, 13019 kPa, x2 = 0.9432 | 681.6 ± 0.5
313.11 K, 14016 kPa, x2 = 0.9432 | 682.6 ± 0.5
313.11 K, 15029 kPa, x2 = 0.9432 | 683.6 ± 0.5
313.11 K, 16024 kPa, x2 = 0.9432 | 684.5 ± 0.5
313.11 K, 17011 kPa, x2 = 0.9432 | 685.5 ± 0.5
313.11 K, 18015 kPa, x2 = 0.9432 | 686.4 ± 0.6
313.11 K, 19046 kPa, x2 = 0.9432 | 687.4 ± 0.6
313.11 K, 20016 kPa, x2 = 0.9432 | 688.2 ± 0.6
313.13 K, 1017 kPa, x2 = 0.7491 | 761.8 ± 0.5
313.13 K, 2027 kPa, x2 = 0.7491 | 762.9 ± 0.5
313.13 K, 3031 kPa, x2 = 0.7491 | 764 ± 0.5
313.13 K, 4039 kPa, x2 = 0.7491 | 764.9 ± 0.5
313.13 K, 5021 kPa, x2 = 0.7491 | 765.9 ± 0.5
313.13 K, 6027 kPa, x2 = 0.7491 | 766.9 ± 0.5
313.13 K, 7021 kPa, x2 = 0.7491 | 767.9 ± 0.5
313.13 K, 8054 kPa, x2 = 0.7491 | 768.9 ± 0.5
313.13 K, 9007 kPa, x2 = 0.7491 | 769.8 ± 0.5
313.13 K, 10018 kPa, x2 = 0.7491 | 770.7 ± 0.5
